Laboratory results reported in PubChem BioAssay AID330 (DTP/NCI, 2004).
Several values for one entry are separate records, joined by “and”; a condition that tells them apart may be missing. Identical values can stand only once. Toxic doses and inconclusive results are not listed. Rule for the calls: active = survival T/C of 150% or more; inactive = T/C below 125% in these data. Square brackets hold non-standard residues; d marks the D form. Peptide text beside a SMILES is read from it. ξ: configuration not given here. ξH = NC(Cc1c[nH]cn1)C(=O)O

System: P388 leukemia ip, CD2F1 mice, survival T/C
Assay: NCI In Vivo Anticancer Drug Screen. Data for tumor model P388 Leukemia (intraperitoneal) in CD2F1 (CDF1) mice
Conditions: endpoint: median survival time, higher = longer survival
How it was run: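 Mice carrying the transplanted tumor received test compound or vehicle. Survival was recorded in each group, and the value is the treated-group measurement divided by that of the vehicle-treated control group.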

[1] = dose: 6.25 mg/kg/injection, schedule: Q01DX005 (ip), vehicle: Klucel (hydroxypropylcellulose) (HPC)
[2] = dose: 12.5 mg/kg/injection, schedule: Q01DX005 (ip), vehicle: Klucel (hydroxypropylcellulose) (HPC)
[3] = dose: 25.0 mg/kg/injection, schedule: Q01DX005 (ip), vehicle: Klucel (hydroxypropylcellulose) (HPC)
[4] = dose: 50.0 mg/kg/injection, schedule: Q01DX005 (ip), vehicle: Klucel (hydroxypropylcellulose) (HPC)
[5] = dose: 25.0 mg/kg/injection, schedule: Q04DX002 (ip), vehicle: saline with Tween-80
[6] = dose: 50.0 mg/kg/injection, schedule: Q04DX002 (ip), vehicle: saline with Tween-80
[7] = dose: 100.0 mg/kg/injection, schedule: Q04DX002 (ip), vehicle: saline with Tween-80
[8] = dose: 50.0 mg/kg/injection, schedule: Q01DX005 (ip), vehicle: saline with Tween-80
[9] = dose: 100.0 mg/kg/injection, schedule: Q01DX005 (ip), vehicle: saline with Tween-80
[10] = dose: 200.0 mg/kg/injection, schedule: Q01DX005 (ip), vehicle: saline with Tween-80
[11] = dose: 100.0 mg/kg/injection, schedule: Q01DX009 (ip), vehicle: saline with Tween-80
[12] = dose: 60.0 mg/kg/injection, schedule: Q01DX005 (ip), vehicle: saline with Tween-80
[13] = dose: 120.0 mg/kg/injection, schedule: Q01DX005 (ip), vehicle: saline with Tween-80
[14] = dose: 240.0 mg/kg/injection, schedule: Q01DX005 (ip), vehicle: saline with Tween-80
[15] = dose: 120.0 mg/kg/injection, schedule: Q01DX005 (ip), vehicle: saline
[16] = dose: 240.0 mg/kg/injection, schedule: Q01DX005 (ip), vehicle: saline
[17] = dose: 50.0 mg/kg/injection, schedule: Q01DX009 (ip), vehicle: saline
[18] = dose: 100.0 mg/kg/injection, schedule: Q01DX009 (ip), vehicle: saline
[19] = dose: 200.0 mg/kg/injection, schedule: Q01DX009 (ip), vehicle: saline
[20] = dose: 50.0 mg/kg/injection, schedule: Q01DX005 (ip), vehicle: saline
[21] = dose: 100.0 mg/kg/injection, schedule: Q01DX005 (ip), vehicle: saline
[22] = dose: 200.0 mg/kg/injection, schedule: Q01DX005 (ip), vehicle: saline
[23] = dose: 6.25 mg/kg/injection, schedule: Q01DX009 (ip), vehicle: saline with Tween-80
[24] = dose: 12.5 mg/kg/injection, schedule: Q01DX009 (ip), vehicle: saline with Tween-80
[25] = dose: 50.0 mg/kg/injection, schedule: Q01DX009 (ip), vehicle: saline with Tween-80

Measured: T/C

C=C1C(=O)OC2/C=C(CO)/C=C\C3OC3(C)CC(OC(=O)/C(C)=C/COC(C)=O)C12 (configuration not stated)
inactive: [1] 94 % of control | [2] 103 % of control | [3] 109 % of control and 94 % of control | [4] 98 % of control

Cc1nc(C)c(C(=O)O)cc1C(=O)O
inactive: dose: 100.0 mg/kg/injection, schedule: Q04DX003 (ip), vehicle: saline 100 % of control | dose: 200.0 mg/kg/injection, schedule: Q04DX003 (ip), vehicle: saline 95 % of control | dose: 400.0 mg/kg/injection, schedule: Q04DX003 (ip), vehicle: saline 86 % of control

O=c1c(CN(CCO)CCO)c(-c2ccccc2)sc2ccccc12
inactive: dose: 12.5 mg/kg/injection, schedule: Q04DX002 (ip), vehicle: saline with Tween-80 100 % of control | [5] 100 % of control | [6] 97 % of control | [7] 91 % of control

CC[Si](CC)(CC)OC(C#N)c1ccc2c(c1)OCO2 (configuration not stated)
inactive: [8] 104 % of control | [9] 104 % of control | [10] 100 % of control

CC(=O)OCC(OC(C)=O)C(OC(C)=O)C(OC(C)=O)C(C#N)OC(C)=O (configuration not stated)
inactive: [11] 91 % of control | dose: 200.0 mg/kg/injection, schedule: Q01DX009 (ip), vehicle: saline with Tween-80 87 % of control | dose: 400.0 mg/kg/injection, schedule: Q01DX009 (ip), vehicle: saline with Tween-80 91 % of control | dose: 600.0 mg/kg/injection, schedule: Q01DX009 (ip), vehicle: saline with Tween-80 87 % of control

Fc1ccc(C(Nc2nncs2)Nc2nncs2)c(F)c1
inactive: [12] 105 % of control | [13] 96 % of control | [14] 107 % of control

Brc1nn[nH]n1
inactive: dose: 50.0 mg/kg/injection, schedule: Q01DX009 (ip), vehicle: Klucel (hydroxypropylcellulose) (HPC) 101 % of control | dose: 100.0 mg/kg/injection, schedule: Q01DX009 (ip), vehicle: Klucel (hydroxypropylcellulose) (HPC) 90 % of control

CCCC(Nc1nncs1)Nc1nncs1
active: dose: 400.0 mg/kg/injection, schedule: Q01DX005 (ip), vehicle: saline with Tween-80 157 % of control
inactive: [8] 101 % of control | [9] 112 % of control and 94 % of control | [10] 108 % of control

O=C1CC2CCC1CC2c1cnc[nH]1 (configuration not stated)
inactive: [5] 93 % of control | [6] 100 % of control | [7] 102 % of control

N#[O+].O.O=N[O-].O=N[O-].[NH2-].[NH2-].[Ru+2]
inactive: dose: 12.5 mg/kg/injection, schedule: Q04DX003 (ip), vehicle: water 110 % of control | dose: 25.0 mg/kg/injection, schedule: Q04DX003 (ip), vehicle: water 111 % of control | dose: 50.0 mg/kg/injection, schedule: Q04DX003 (ip), vehicle: water 118 % of control | dose: 100.0 mg/kg/injection, schedule: Q04DX003 (ip), vehicle: water 111 % of control | dose: 200.0 mg/kg/injection, schedule: Q04DX003 (ip), vehicle: water 102 % of control

CN(c1ccccc1)c1c(Cl)c(=O)oc2c1ccc1occc12
inactive: dose: 30.0 mg/kg/injection, schedule: Q01DX005 (ip), vehicle: saline with Tween-80 103 % of control | [12] 106 % of control | [15] 96 % of control | [14] 105 % of control | [16] 103 % of control

Sc1ccccc1N=Cc1cccs1
inactive: [17] 90 % of control | [18] 99 % of control | [19] 96 % of control

CS/N=N/N=C(\c1ccccc1)N1CCOCC1
inactive: [12] 103 % of control | [13] 97 % of control

c1ccc2c3c([nH]c2c1)CN1CCCCC1C3 (configuration not stated)
inactive: [1] 92 % of control | [2] 92 % of control | [3] 93 % of control | [4] 99 % of control | dose: 100.0 mg/kg/injection, schedule: Q01DX005 (ip), vehicle: Klucel (hydroxypropylcellulose) (HPC) 96 % of control | dose: 200.0 mg/kg/injection, schedule: Q01DX005 (ip), vehicle: Klucel (hydroxypropylcellulose) (HPC) 112 % of control

NC(N)=NCCCC(N)C(=O)N1CCCC1C(=O)O (stereo not drawn) (H-Arg-Pro-OH; configuration not given here)
inactive: [20] 101 % of control | [21] 97 % of control | [22] 100 % of control

CC(=O)OCC1OC(CC(=O)c2ccccc2)C=CC1OC(C)=O (configuration not stated)
inactive: dose: 25.0 mg/kg/injection, schedule: Q01DX005 (ip), vehicle: saline with Tween-80 99 % of control | [8] 102 % of control and 101 % of control | [9] 100 % of control and 106 % of control | [10] 97 % of control and 106 % of control

CCCC(=O)OCC1OC(n2cnc3c(=S)nc[nH]c32)C(OC(=O)CCC)C1OC(=O)CCC (configuration not stated)
inactive: [23] 116 % of control | [24] 112 % of control | dose: 25.0 mg/kg/injection, schedule: Q01DX009 (ip), vehicle: saline with Tween-80 112 % of control | [25] 116 % of control

Nc1nc(Cl)nc2c1ncn2C1OC(CO)C(O)C1O (configuration not stated)
active: dose: 25.0 mg/kg/injection, schedule: Q01DX010 (ip), vehicle: carboxymethylcellulose (CMC) 150 % of control
inactive: dose: 3.1 mg/kg/injection, schedule: Q01DX010 (ip), vehicle: carboxymethylcellulose (CMC) 105 % of control | dose: 6.2 mg/kg/injection, schedule: Q01DX010 (ip), vehicle: carboxymethylcellulose (CMC) 120 % of control

CC(C)N(C(=S)/N=C1/SCS(=O)(=O)N1Cc1ccccc1)C(C)C
inactive: dose: 50.0 mg/kg/injection, schedule: Q04DX003 (ip), vehicle: saline with Tween-80 97 % of control | dose: 100.0 mg/kg/injection, schedule: Q04DX003 (ip), vehicle: saline with Tween-80 95 % of control | dose: 200.0 mg/kg/injection, schedule: Q04DX003 (ip), vehicle: saline with Tween-80 98 % of control

NCC(=O)NCC(=O)NC(Cc1cnc[nH]1)C(=O)O (stereo not drawn) (H-Gly-Gly-[ξH]-OH)
inactive: [20] 103 % of control | [21] 96 % of control | [22] 104 % of control

CC(=NCc1ccccc1)NOCc1ccccc1
inactive: [20] 114 % of control | [21] 108 % of control | [22] 101 % of control

CC(=O)O[C@H]1C[C@@H]2C(COC(=O)CC(C)C)=CO[C@@H](OC(=O)CC(C)C)[C@@H]2[C@@]12CO2
inactive: dose: 3.75 mg/kg/injection, schedule: Q01DX005 (ip), vehicle: Klucel (hydroxypropylcellulose) (HPC) 105 % of control | dose: 7.5 mg/kg/injection, schedule: Q01DX005 (ip), vehicle: Klucel (hydroxypropylcellulose) (HPC) 101 % of control | dose: 15.0 mg/kg/injection, schedule: Q01DX005 (ip), vehicle: Klucel (hydroxypropylcellulose) (HPC) 88 % of control | dose: 30.0 mg/kg/injection, schedule: Q01DX005 (ip), vehicle: Klucel (hydroxypropylcellulose) (HPC) 95 % of control | dose: 60.0 mg/kg/injection, schedule: Q01DX005 (ip), vehicle: Klucel (hydroxypropylcellulose) (HPC) 101 % of control

CC(N)(CCS(=O)(=O)CP(=O)(O)O)C(=O)O (configuration not stated)
inactive: dose: 60.0 mg/kg/injection, schedule: Q01DX005 (ip), vehicle: saline 103 % of control | [15] 97 % of control | [16] 93 % of control

CSC1=C(C#N)C(=O)N=S(C)(C)=N1
inactive: [8] 108 % of control | [9] 110 % of control | [10] 100 % of control

O=C(O)CCCCCCCCCCNC(=O)Nc1cccc(C(F)(F)F)c1
inactive: dose: 25.0 mg/kg/injection, schedule: Q01DX009 (ip), vehicle: saline 88 % of control | [17] 98 % of control | [18] 104 % of control | [19] 111 % of control

CCCCCCCCCCC(O)C(=O)O (configuration not stated)
inactive: [25] 95 % of control | [11] 89 % of control

O=S(=O)(OCCCl)c1c(F)c(F)c(F)c(F)c1F
inactive: dose: 3.12 mg/kg/injection, schedule: Q01DX009 (ip), vehicle: saline with Tween-80 103 % of control | [23] 109 % of control | [24] 110 % of control

COC1C(COC(=O)c2ccccc2)OC(OC(C)=O)C1OC(C)=O (configuration not stated)
inactive: [8] 94 % of control | [9] 96 % of control | [10] 100 % of control
